# Source: PubChem BioAssay (NCI)
#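 Method: 48-hour compound exposure of cells in 96-well plates, five concentrations, linear interpolation of endpoints. The concentration for 50% growth inhibition is given as GI50. At the TGI there is no net growth.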
# How the values were obtained:
# Test in all cases: inhibition of tumour cell growth, NCI panel, 48 h
# [1] = tested on: 786-0 renal
# [2] = tested on: A498 renal
# [3] = tested on: A549 NSCLC
# [4] = tested on: ACHN renal
# [5] = tested on: BT-549 breast
# [6] = tested on: CAKI-1 renal
# [7] = tested on: CCRF-CEM leukemia
# [8] = tested on: COLO 205 colon
# [9] = tested on: DU-145 prostate
# [10] = tested on: EKVX NSCLC
# [11] = tested on: HCC-2998 colon
# [12] = tested on: HCT-116 colon
# [13] = tested on: HCT-15 colon
# [14] = tested on: HL-60(TB) leukemia
# [15] = tested on: HOP-62 NSCLC
# [16] = tested on: HOP-92 NSCLC
# [17] = tested on: HS 578T breast
# [18] = tested on: HT29 colon
# [19] = tested on: IGROV1 ovarian
# [20] = tested on: K-562 leukemia
# [21] = tested on: KM12 colon
# [22] = tested on: LOX IMVI melanoma
# [23] = tested on: M14 melanoma
# [24] = tested on: MALME-3M melanoma
# [25] = tested on: MCF7 breast
# [26] = tested on: MDA-MB-231 breast
# [27] = tested on: MDA-MB-435
# [28] = tested on: MDA-MB-468 breast
# [29] = tested on: MOLT-4 leukemia
# [30] = tested on: NCI-H226 lung
# [31] = tested on: NCI-H23 lung
# [32] = tested on: NCI-H460 lung
# [33] = tested on: NCI-H522 lung
# [34] = tested on: NCI/ADR-RES ovarian
# [35] = tested on: OVCAR-3 ovarian
# [36] = tested on: OVCAR-4 ovarian
# [37] = tested on: OVCAR-5 ovarian
# [38] = tested on: OVCAR-8 ovarian
# [39] = tested on: PC-3 prostate
# [40] = tested on: RPMI-8226 leukemia
# [41] = tested on: RXF 393 renal
# [42] = tested on: SF-268 CNS
# [43] = tested on: SF-295 CNS
# [44] = tested on: SF-539 CNS
# [45] = tested on: SK-MEL-2 melanoma
# [46] = tested on: SK-MEL-28 melanoma
# [47] = tested on: SK-MEL-5 melanoma
# [48] = tested on: SK-OV-3 ovarian
# [49] = tested on: SN12C renal
# [50] = tested on: SNB-19 CNS
# [51] = tested on: SNB-75 CNS
# [52] = tested on: SR leukemia
# [53] = tested on: SW-620 colon
# [54] = tested on: T-47D breast
# [55] = tested on: TK-10 renal
# [56] = tested on: U251 CNS
# [57] = tested on: UACC-257 melanoma
# [58] = tested on: UACC-62 melanoma
# [59] = tested on: UO-31 renal
smiles,measurement,setting,value
CSc1nc(-c2cccc(C)c2)c2cc(-c3ccccc3)n(C)c2n1,GI50,[1],14.5 µM
same,TGI,[1],47.8 µM
same,GI50,[2],27 µM
same,TGI,[2],94.9 µM
same,GI50,[3],7.01 µM
same,TGI,[3],> 100 µM
same,GI50,[4],12.9 µM
same,TGI,[4],75.1 µM
same,GI50,[5],7.11 µM
same,TGI,[5],33.5 µM
same,GI50,[6],5.08 µM
same,TGI,[6],> 100 µM
same,GI50,[7],4 µM
same,TGI,[7],36.1 µM
same,GI50,[8],7.28 µM
same,TGI,[8],26.9 µM
same,GI50,[9],18.1 µM
same,TGI,[9],> 100 µM
same,GI50,[10],4.88 µM
same,TGI,[10],39.1 µM
same,GI50,[11],13.9 µM
same,TGI,[11],60.8 µM
same,GI50,[12],4.17 µM
same,TGI,[12],21.7 µM
same,GI50,[13],4.9 µM
same,TGI,[13],24.8 µM
same,GI50,[14],3.54 µM
same,TGI,[14],35.4 µM
same,GI50,[15],8.77 µM
same,TGI,[15],48.9 µM
same,GI50,[16],3.92 µM
same,TGI,[16],30.7 µM
same,GI50,[17],7 µM
same,TGI,[17],78.1 µM
same,GI50,[18],3.98 µM
same,TGI,[18],25.4 µM
same,GI50,[19],6.43 µM
same,TGI,[19],> 100 µM
same,GI50,[20],3.13 µM
same,TGI,[20],> 100 µM
same,GI50,[21],5.41 µM
same,TGI,[21],64.7 µM
same,GI50,[22],5.44 µM
same,TGI,[22],19.4 µM
same,GI50,[23],4.56 µM
same,TGI,[23],51.4 µM
same,GI50,[24],9.16 µM
same,TGI,[24],38.2 µM
same,GI50,[25],5.88 µM
same,TGI,[25],41.8 µM
same,GI50,[26],7.42 µM
same,TGI,[26],30.2 µM
same,GI50,[27],2.86 µM
same,TGI,[27],8.45 µM
same,GI50,[28],3.08 µM
same,TGI,[28],15.6 µM
same,GI50,[29],4.47 µM
same,TGI,[29],37.7 µM
same,GI50,[30],12.8 µM
same,TGI,[30],50 µM
same,GI50,[31],12.2 µM
same,TGI,[31],68 µM
same,GI50,[32],3.98 µM
same,TGI,[32],19.1 µM
same,GI50,[33],3.41 µM
same,TGI,[33],17.2 µM
same,GI50,[34],3.58 µM
same,TGI,[34],30.9 µM
same,GI50,[35],4.31 µM
same,TGI,[35],30.7 µM
same,GI50,[36],20.5 µM
same,TGI,[36],> 100 µM
same,GI50,[37],18.6 µM
same,TGI,[37],> 100 µM
same,GI50,[38],16.3 µM
same,TGI,[38],> 100 µM
same,GI50,[39],7.9 µM
same,TGI,[39],> 100 µM
same,GI50,[40],4.82 µM
same,TGI,[40],37.8 µM
same,GI50,[41],7.91 µM
same,TGI,[41],47 µM
same,GI50,[42],11.2 µM
same,TGI,[42],51.1 µM
same,GI50,[43],5.06 µM
same,TGI,[43],18.2 µM
same,GI50,[44],6.35 µM
same,TGI,[44],21.8 µM
same,GI50,[45],3.62 µM
same,TGI,[45],17.5 µM
same,GI50,[46],12.2 µM
same,TGI,[46],97.7 µM
same,GI50,[47],3.59 µM
same,TGI,[47],12.8 µM
same,GI50,[48],11.2 µM
same,TGI,[48],52.1 µM
same,GI50,[49],10.7 µM
same,TGI,[49],44.7 µM
same,GI50,[50],14.6 µM
same,TGI,[50],93.6 µM
same,GI50,[51],3.17 µM
same,TGI,[51],27.4 µM
same,GI50,[52],3.17 µM
same,TGI,[52],> 100 µM
same,GI50,[53],4.87 µM
same,TGI,[53],> 100 µM
same,GI50,[54],4.59 µM
same,TGI,[54],41.3 µM
same,GI50,[55],28.8 µM
same,TGI,[55],91.9 µM
same,GI50,[56],4.65 µM
same,TGI,[56],33.8 µM
same,GI50,[57],16.7 µM
same,TGI,[57],50.4 µM
same,GI50,[58],3.99 µM
same,TGI,[58],17.9 µM
same,GI50,[59],6.78 µM
same,TGI,[59],67 µM
